Among the data in patent US9018215B2, “Heteroaromatic compounds, medicaments containing said compounds, use thereof and processes for the preparation thereof” (Boehringer Ingelheim International GmbH, priority 2013, dated 2015) are IC50 values, retold here.

SMILES strings stand for the structures. pIC50: −log10 of the molar value.

The target of the assay is T1, ENaC (Epithelial Sodium Channel) (Mus musculus, UniProt Q61180+Q9WU38+Q9WU39).
T1 construct: Mouse kidney M-1 cells were cultivated in DMEM containing 5% FCS and 5 μM dexamethasone; endogenous in cells; host or cells: mouse kidney M-1 cells
T1 sequence (Q61180 1-699): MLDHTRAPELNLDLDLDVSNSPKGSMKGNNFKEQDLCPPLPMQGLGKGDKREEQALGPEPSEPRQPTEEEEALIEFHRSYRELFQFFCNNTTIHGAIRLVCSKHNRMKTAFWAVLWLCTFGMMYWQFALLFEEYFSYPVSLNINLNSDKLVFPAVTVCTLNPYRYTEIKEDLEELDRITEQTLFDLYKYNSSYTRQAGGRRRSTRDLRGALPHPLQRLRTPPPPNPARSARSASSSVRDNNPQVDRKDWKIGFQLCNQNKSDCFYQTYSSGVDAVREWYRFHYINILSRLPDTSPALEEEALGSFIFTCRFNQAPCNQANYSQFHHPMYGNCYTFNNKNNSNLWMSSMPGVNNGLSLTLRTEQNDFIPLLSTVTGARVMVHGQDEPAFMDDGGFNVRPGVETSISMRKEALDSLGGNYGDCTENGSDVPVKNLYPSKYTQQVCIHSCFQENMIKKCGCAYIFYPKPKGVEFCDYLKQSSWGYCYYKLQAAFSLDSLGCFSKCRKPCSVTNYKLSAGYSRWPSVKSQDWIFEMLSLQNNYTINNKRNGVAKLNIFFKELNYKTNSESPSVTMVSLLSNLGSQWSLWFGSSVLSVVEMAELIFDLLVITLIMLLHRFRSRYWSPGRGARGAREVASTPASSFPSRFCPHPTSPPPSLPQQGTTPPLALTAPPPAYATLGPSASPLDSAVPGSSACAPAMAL
T1 sequence (Q9WU38 1-638): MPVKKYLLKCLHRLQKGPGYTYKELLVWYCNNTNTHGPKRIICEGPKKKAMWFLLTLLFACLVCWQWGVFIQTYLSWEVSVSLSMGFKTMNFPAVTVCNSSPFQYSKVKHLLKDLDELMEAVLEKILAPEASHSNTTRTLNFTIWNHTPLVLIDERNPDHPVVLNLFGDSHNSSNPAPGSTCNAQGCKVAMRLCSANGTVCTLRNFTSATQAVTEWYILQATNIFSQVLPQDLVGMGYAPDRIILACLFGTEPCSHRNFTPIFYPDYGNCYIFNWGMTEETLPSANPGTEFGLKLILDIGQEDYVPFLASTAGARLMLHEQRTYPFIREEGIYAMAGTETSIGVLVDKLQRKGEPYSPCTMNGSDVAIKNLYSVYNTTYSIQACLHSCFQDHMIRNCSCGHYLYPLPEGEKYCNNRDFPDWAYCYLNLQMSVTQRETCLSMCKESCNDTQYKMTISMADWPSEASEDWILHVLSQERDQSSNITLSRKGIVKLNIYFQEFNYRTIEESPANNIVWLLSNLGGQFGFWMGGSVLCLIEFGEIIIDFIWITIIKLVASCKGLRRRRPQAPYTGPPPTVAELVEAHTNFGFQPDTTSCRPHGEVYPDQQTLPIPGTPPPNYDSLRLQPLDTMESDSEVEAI
T1 sequence (Q9WU39 1-655): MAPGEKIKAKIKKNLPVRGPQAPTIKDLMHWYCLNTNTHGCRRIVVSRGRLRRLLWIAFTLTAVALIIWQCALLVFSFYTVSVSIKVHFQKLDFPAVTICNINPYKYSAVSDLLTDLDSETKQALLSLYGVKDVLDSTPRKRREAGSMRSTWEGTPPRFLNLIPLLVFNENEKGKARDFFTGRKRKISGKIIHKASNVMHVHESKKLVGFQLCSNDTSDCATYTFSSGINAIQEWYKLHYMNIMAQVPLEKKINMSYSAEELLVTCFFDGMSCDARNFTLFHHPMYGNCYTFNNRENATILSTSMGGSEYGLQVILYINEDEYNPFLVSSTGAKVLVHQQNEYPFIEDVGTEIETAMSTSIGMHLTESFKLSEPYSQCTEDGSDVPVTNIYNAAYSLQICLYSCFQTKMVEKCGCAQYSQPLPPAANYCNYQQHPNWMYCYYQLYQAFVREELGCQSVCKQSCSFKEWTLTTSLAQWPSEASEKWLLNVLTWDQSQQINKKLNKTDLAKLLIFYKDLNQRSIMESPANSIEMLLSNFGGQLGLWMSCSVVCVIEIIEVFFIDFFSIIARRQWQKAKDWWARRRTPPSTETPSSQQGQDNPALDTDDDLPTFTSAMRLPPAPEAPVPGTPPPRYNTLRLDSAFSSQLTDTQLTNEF
Briefly: Ussing chamber assay: short circuit current (I_sc) in M-1 cells, inhibition of the amiloride sensitive I_SC. The assay is classed as cell-based. As to conditions: Mouse kidney M-1 cells on transwell filters, compounds added to the apical solution, 37° C., voltage-clamp mode. As for the experimental part:
Mouse kidney M-1 cells were cultivated in DMEM containing 5% FCS and 5 μM dexamethasone for 10 to 12 days on polyester transwell filters. Filters were inserted into a teflon-coated well-plate which fit into the in-house ussing chamber system. Prior to measurement the medium of M-1 cells was replaced with Caco-2 transport buffer (Invitrogen, Germany). During measurements, the Ussing chamber temperature was kept at 37° C. Short circuit currents (I_sc) were measured in the voltage-clamp mode using an in-house built amplifier (Boehringer Ingelheim, Biberach) with the software package Lab View for data acquisition and analysis. The transepithelial electrical resistance (TEER) was determined by the application of voltage steps of ±5 mV every 5 sec. Compounds were administered at a final concentration of 3 μM or at increasing concentrations (1-3-10 μM) to the apical solution. At the end of each experiment the amiloride sensitive I_SC was measured by adding 3 μM amiloride to the apical compartment. Results are expressed as inhibition in percent of the amiloride effect or as IC50. With the example compounds given above, the following IC50 values were determined in the Ussing Chamber assay: […]

Usually pIC50 stands for the IC50 on a negative log10 scale, so that one unit is a factor of ten. Low values mean a large IC50, high ones a small IC50.

Compound `COC(=O)c1cc(CN2CCC(N/C(N)=N/C(=O)c3nc(Cl)c(N)nc3N)CC2)ccn1` [Example 1.1] had a pIC50 of 8.52.

`NC(=NC(=O)c1nc(Cl)c(N)nc1N)NC1CCN(Cc2ccnc(C(=O)N(CCO)CCO)c2)CC1` [Example 1.2] gave a pIC50 of 8.00.

In turn, `NC(=NC(=O)c1nc(Cl)c(N)nc1N)NC1CCN(Cc2cn3cc(C(=O)NCCOCCO)ccc3n2)CC1` [Example 1.3] had a pIC50 of 7.74.

`NC(=NC(=O)c1nc(Cl)c(N)nc1N)NC1CCN(Cc2ccc(CCc3cccnc3)nc2)CC1` [Example 1.4] gave a negative logarithm of the IC50 (pIC50) of 8.52.

On to `NC(=NC(=O)c1nc(Cl)c(N)nc1N)NC1CCN(Cc2ccccn2)CC1` [Example 1.5], for which the negative-log IC50 (pIC50) is 7.82.

`NC(=NC(=O)c1nc(Cl)c(N)nc1N)NC1CCN(Cc2ccc(=O)n(Cc3cccnc3)c2)CC1` [Example 1.6]: the pIC50 is 8.05.

As to `COC(=O)c1ccc2nc(CN3CCC(NC(N)=NC(=O)c4nc(Cl)c(N)nc4N)CC3)cn2c1` [Example 1.7], the pIC50 is 8.40.

Compound `NC(=NC(=O)c1nc(Cl)c(N)nc1N)NC1CCN(Cc2cn3cc(C(=O)NCCO)ccc3n2)CC1` [Example 1.8] showed a pIC50 of 7.96.

`NC(=NC(=O)c1nc(Cl)c(N)nc1N)NC1CCN(Cc2cscn2)CC1` [Example 1.9] had a pIC50 of 7.77.

In turn, `NC(=NC(=O)c1nc(Cl)c(N)nc1N)NC1CCN(Cc2nc3ccccc3c(=O)[nH]2)CC1` [Example 1.10] gave a negative-log IC50 (pIC50) of 8.40.

Take `COC(=O)c1ccc(CN2CCC(NC(N)=NC(=O)c3nc(Cl)c(N)nc3N)CC2)s1` [Example 1.11]: the pIC50 was 8.52.

For `C#Cc1cncc(CN2CCC(NC(N)=NC(=O)c3nc(Cl)c(N)nc3N)CC2)c1` [Example 1.12], the pIC50 is 8.40.

On to `NC(=NC(=O)c1nc(Cl)c(N)nc1N)NC1CCN(Cc2cn3cc(I)ccc3n2)CC1` [Example 1.13], for which the negative logarithm of the IC50 (pIC50) was 8.52.

`NC(=NC(=O)c1nc(Cl)c(N)nc1N)NC1CCN(Cc2ccnc(C(=O)NCCOCCO)c2)CC1` [Example 1.14] gave a pIC50 of 8.40.

On to `NC(=NC(=O)c1nc(Cl)c(N)nc1N)NC1CCN(Cc2cn3ccccc3n2)CC1` [Example 1.15], for which the pIC50 is 8.22.

As for `NC(=NC(=O)c1nc(Cl)c(N)nc1N)NC1CCN(Cc2nc3ccccc3[nH]2)CC1` [Example 1.16], the pIC50 was 8.30.

The compound `NC(=NC(=O)c1nc(Cl)c(N)nc1N)NC1CCN(Cc2ccc(Br)nc2)CC1` [Example 1.17] gave a pIC50 of 8.30.

`COC(=O)c1cc(CN2CCC(N/C(N)=N/C(=O)c3nc(Br)c(N)nc3N)CC2)ccn1` [Example 1.19] showed a negative logarithm of the IC50 (pIC50) of 8.40.

As to `N/C(=N\C(=O)c1nc(Cl)c(N)nc1N)NC1CCN(Cc2ccc(=O)n(Cc3cn(Cc4ccccn4)nn3)c2)CC1` [Example 2.1], the negative logarithm of the IC50 (pIC50) was 8.22.

In the case of `N/C(=N\C(=O)c1nc(Cl)c(N)nc1N)NC1CCN(Cc2cncc(-c3cn(CCOCCOCCOCCO)nn3)c2)CC1` [Example 2.2], the negative-log IC50 (pIC50) was 7.92.

In turn, `N/C(=N\C(=O)c1nc(Cl)c(N)nc1N)NC1CCN(Cc2ccnc(C(=O)O)c2)CC1` [Example 3.1] showed a pIC50 of 7.68.

`N/C(=N\C(=O)c1nc(Cl)c(N)nc1N)NC1CCN(Cc2ccc(C(=O)O)s2)CC1` [Example 3.2] had a negative logarithm of the IC50 (pIC50) of 7.51.

Consider `N/C(=N\C(=O)c1nc(Br)c(N)nc1N)NC1CCN(Cc2ccnc(C(=O)O)c2)CC1` [Example 4.1], for which the pIC50 was 7.80.
